Measured values taken from patent publication US12414995B2, “Bifunctional compounds comprising Apcin-A and their use in the treatment of cancer” (Northwestern University, priority 2019, dated 2025).

Legend:
HIF1α = HIF1α accumulation by Western blot in MDA-MB-231 cells; format: cell-based; conditions: 10 hours; for HIF1α level: indicated dosages
Method: (§1) MDA-MB-231 cells treated with CP5V at indicated dosages for 10 hours were harvested for Western Blot.
MDA-MB-231 cells treated with VHL Ligand 1 at indicated dosages for 10 hours and collected for WB.
Relatively high potential dosage of VHL ligand 1 (VHL1), the VHL-binding moiety offered by CP5V, causes concern if it affects HIF1α, the substrate of VHL.

Cdc20 [1] = biological target: T1, Cdc20 (Homo sapiens, UniProt Q12834); assay: Cdc20 degradation by Western blotting in MCF-7 cells; conditions: various dosages
Cdc20 [2] = biological target: T1, Cdc20; assay: Cdc20 ubiquitylation (immunoprecipitation, anti-ubiquitin immunoblot) in MDA-MB-231 cells; conditions: 2 μM, with MG-132
MDA-MB-231 cells [3] = assay: Cell cycle analysis by flow cytometry in MDA-MB-231 cells; format: cell-based; conditions: for mitotic arrest: double-thymidine synchronized
Method: . In this example, cell cycle analysis of MDA-MB-231 cells was performed after CP5V treatment. The MDA-MB-231 cells were initially synchronized by double-thymidine followed by treatment with CP5V for 16 hours. Cell cycle profile was then measured by flow cytometry.
(§2) Flow cytometry analysis. MDA-MB-231 and MDA-MB-435 cells were plated in a 6-cm dish and double-synchronized for 18 h and then 15 h with a 9-hour release with fresh medium between them. The cells were released and treated with DMSO, Apcin and CP5V at indicated concentrations for 24 h. After treatment, the cells were collected and stained with propidium iodide (PI) staining buffer and analyzed by flow cytometry.
(§3) Given that Cdc20-APC/C regulates mitotic progression through proteolysis of securin and cyclin B1, CP5V-mediated degradation of Cdc20 was examined for resultant changes of the protein level of securin and cyclin B1. […]. […]

MDA-MB-435 cells [4] = assay: Cell cycle analysis by flow cytometry in MDA-MB-435 cells; format: cell-based; conditions: for mitotic arrest: synchronized
Method: as §2, §3

MDA-MB-435 eb cells [5] = test system: MDA-MB-435 eb cells
MDA-MB-435 eb cells [6] = assay: cells; conditions: Homo sapiens, MDA-MB-435, read-out: growth inhibition
Cdc20 mRNA = assay: Cdc20 RNA level by qRT-PCR in MDA-MB-231 cells; format: cell-based; conditions: indicated dosages, 10 hours
Method: MDA-MB-231 cells treated with CP5V at indicated dosages for 10 hours were harvested for RNA extraction, reverse-transcription, and further qRT-PCR.
To further confirm the conclusion that the CP5V-medicated degradation is depending on the ubiquitin-proteasome system, RT-PCR was conducted to measure the alteration of Cdc20 RNA levels in response to CP5V treatment.

Cdc27 = Cdc27 protein level by Western blot in MDA-MB-231 cells (specificity); format: cell-based; conditions: indicated dosages, 10 hours
Method: as §1
To test the specificity for CP5V in targeting Cdc20, the dosage experiment based on MDA-MB-231 cells was repeated and the alteration of protein levels for Cdc20 and Cdc27, another core subunit of anaphase-promoting complex, was measured.

cyclin B1 = assay: Cyclin B1 level by Western blotting in MDA-MB-231 cells; format: cell-based; conditions: indicated dose, 10 hours
Method: […]. Cdc20 and cyclin-B levels were then determined by Western blotting.
as §3

MDA-MB-231 cells [7] = assay: Cell proliferation CCK8 assay in MDA-MB-231 cells; format: cell-based; conditions: Homo sapiens, 72 h, read-out: IC50 of cell growth inhibition
Excerpt: (§4) Cell proliferation assays.

MDA-MB-435 cells [8] = assay: Cell proliferation CCK8 assay in MDA-MB-435 cells; format: cell-based; conditions: Homo sapiens, 72 h, read-out: IC50 of cell growth inhibition
Excerpt: as §4

[9] = test system: Tamoxifen-resistant breast cancer cells; assay: Endocrine response of Tamoxifen-resistant breast cancer cells; format: cell-based
4T1 xenograft tumor = assay: Mouse 4T1 xenograft model; conditions: 100 mg/kg intraperitoneally twice per week
MCF7 cells = assay: Clonogenic assay in MCF7 cells; conditions: 1 μM for 24 hours, then culture 2 weeks
U2OS cells = assay: Cell survival CCK8 assay in U2OS cells; conditions: 72 hours
22Rv1 cells = assay: Cell survival CCK8 assay in 22Rv1 cells; conditions: 72 hours
LNCaP cells = assay: Cell survival CCK8 assay in LNCaP cells; conditions: 72 hours
Cdc20 [10] = biological target: T1, Cdc20; assay: Cdc20 degradation by Western blotting in MDA-MB-231 cells; conditions: MLN4924 5 μM with CP5V, 10 hours

T1 sequence (Q12834 whole entry): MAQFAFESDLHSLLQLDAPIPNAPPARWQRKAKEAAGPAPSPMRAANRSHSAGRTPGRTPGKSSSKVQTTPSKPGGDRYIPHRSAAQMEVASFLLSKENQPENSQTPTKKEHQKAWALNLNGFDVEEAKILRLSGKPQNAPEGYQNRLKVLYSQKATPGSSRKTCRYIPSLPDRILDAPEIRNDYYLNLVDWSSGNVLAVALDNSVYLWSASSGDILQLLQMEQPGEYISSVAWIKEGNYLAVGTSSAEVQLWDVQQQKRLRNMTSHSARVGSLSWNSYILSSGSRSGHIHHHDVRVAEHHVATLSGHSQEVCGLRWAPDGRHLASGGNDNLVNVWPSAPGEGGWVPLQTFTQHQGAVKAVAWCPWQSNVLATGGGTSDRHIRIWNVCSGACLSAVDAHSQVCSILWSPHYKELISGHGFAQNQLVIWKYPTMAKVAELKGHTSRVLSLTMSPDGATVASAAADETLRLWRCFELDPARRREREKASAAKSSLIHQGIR

SMILES: Cc1ncsc1-c1ccc(CNC(=O)[C@@H]2C[C@@H](O)CN2C(=O)[C@@H](N)C(C)(C)C)cc1 [VHL ligand 1]
- concentration that induced HIF-α accumulation (HIF1α): ≥ 1 µM
- HIF1α level (HIF1α): significant HIF1α is accumulated

SMILES: NCCCOC(=O)NC(Nc1ncccn1)C(Cl)(Cl)Cl (centres unmarked) [Apcin-A, 3-aminopropyl (2,2,2-trichloro-1-(pyrimidin-2-ylamino)ethyl)carbamate]
- Cdc20 protein level (degradation) (Cdc20 [1]): no degradation of Cdc20
- Cdc20 ubiquitylation (Cdc20 [2]): no obvious effect

SMILES: Cc1ncc([N+](=O)[O-])n1CCOC(=O)NC(Nc1ncccn1)C(Cl)(Cl)Cl (centres unmarked) [Apcin]
- mitotic arrest (MDA-MB-231 cells [3]): no effect
- mitotic arrest (MDA-MB-435 cells [4]): no effect

SMILES: CC(=O)O[C@H]1C(=O)[C@@]2(C)[C@H]([C@H](OC(=O)c3ccccc3)[C@]3(O)C[C@H](OC(=O)[C@H](O)[C@@H](NC(=O)c4ccccc4)c4ccccc4)C(C)=C1C3(C)C)[C@]1(OC(C)=O)CO[C@@H]1C[C@@H]2O [paclitaxel, reference compound]
- cells survived (MDA-MB-435 eb cells [5]; 5 nM paclitaxel alone): about 92%
- inhibition at 0.005 µM (MDA-MB-435 eb cells [6]): < 10%

SMILES: Cc1ncsc1-c1ccc(CNC(=O)[C@@H]2C[C@@H](O)CN2C(=O)[C@H](NC(=O)CCOCCOCCOCCOCCOCCC(=O)NCCCOC(=O)NC(Nc2ncccn2)C(Cl)(Cl)Cl)C(C)(C)C)cc1 (stereo partly drawn) [CP5V, (R)-25-((2S,4R)-4-hydroxy-2-((4-(4-methylthiazol-5-yl)benzyl)carbamoyl)pyrrolidine-1-carbonyl)-26,26-dimethyl-5,23-dioxo-8,11,14,17,20-pentaoxa-4,24-diazaheptacosyl (2,2,2-trichloro-1-(pyrimidin-2-ylamino)ethyl)carbamate]
- Cdc20 mRNA level (Cdc20 mRNA): no significant change
- Cdc27 protein level (Cdc27): no Cdc27 protein level change
- HIF1α level (HIF1α): no obvious alteration of HIF1α
- cyclin B1 level (cyclin B1): largely accumulated
- cells arrested in the G2/M phase (MDA-MB-231 cells [3]; 2 μM): over 40%
- fraction of cells in the G0/G1 phase (MDA-MB-231 cells [3]; 2 μM, versus control cells): much lower compared to control cells
- mitotic arrest (MDA-MB-231 cells [3]): induces mitotic arrest
- cells arrested in the G2/M phase (MDA-MB-435 cells [4]; 2 μM): > 50%
- fraction of cells in the G0/G1 phase (MDA-MB-435 cells [4]; 2 μM, versus control cells): much lower compared to control cells
- mitotic arrest (MDA-MB-435 cells [4]): induces mitotic arrest
- IC50 (MDA-MB-231 cells [7]): 2600 nM
- IC50 (MDA-MB-435 cells [8]): 1990 nM
- re-sensitization to Tamoxifen [9]: re-sensitizes Tamoxifen-resistant breast cancer cells to Tamoxifen treatment
- Taxol-cytotoxic response of Taxol-resistant cells (MDA-MB-435 eb cells [5]; with 5 nM paclitaxel): significantly restored their Taxol-cytotoxic response
- inhibition at 5 µM (MDA-MB-435 eb cells [6]): > 50%
- Cdc20 expression in the xenograft tumor (IHC) (4T1 xenograft tumor): decreased Cdc20 expression
- Ki67 index in the tumor (IHC) (4T1 xenograft tumor): decreasing the Ki67 index
- effect on mice body weight (4T1 xenograft tumor): no significant effect
- expression of caspase-3 in the tumor (IHC) (4T1 xenograft tumor): did not change dramatically
- liver toxicity (4T1 xenograft tumor): no significant effect
- reduction of the size of the xenograft tumor compared to placebo (4T1 xenograft tumor; Balb/C mice): approximately 70%
- reduction of the weight of the xenograft tumor compared to placebo (4T1 xenograft tumor; Balb/C mice): approximately 70%
- colony formation (killing of breast cancer cells) (MCF7 cells): potent efficacy in killing breast cancer cells
- inhibition of cell growth (U2OS cells): significant inhibition of cell growth
- inhibition of cell growth (22Rv1 cells): significant inhibition of cell growth
- inhibition of cell growth (LNCaP cells): significant inhibition of cell growth

SMILES: NS(=O)(=O)OC[C@@H]1C[C@@H](n2ccc3c(N[C@H]4CCc5ccccc54)ncnc32)C[C@@H]1O [MLN4924]
- effect on CP5V-mediated Cdc20 degradation (Cdc20 [10]): inhibited the degradation of Cdc20 caused by CP5V
